According to PubChem BioAssay (NCI):
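Grown in 96-well plates, cells were treated for 48 hours with each compound at five concentrations. Insufficient inhibition: endpoint recorded as highest concentration tested. TGI is the concentration that stops growth completely.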

System: MDA-MB-435
Assay: DTP human tumour cell line panel, 48 h

Point of comparison: `C=Cc1nc2c(Cl)ncnc2n1Cc1ccccc1`, TGI 10.1 µM. Against it:
- CO[C@]1(c2ccc([N+](=O)[O-])cc2)Oc2ccccc2C(=O)[C@@]1(Nc1ccc(C=O)cc1)OC — not separable, > 10 µM
- O=C1N(C2CCCCC2)C(=O)N1C1CCCCC1 — higher, > 81.4 µM
- C[N+](C)(CCCn1ccnc1[N+](=O)[O-])CCCn1ccnc1[N+](=O)[O-] — higher, > 100 µM

System: HOP-62 NSCLC
Assay: DTP human tumour cell line panel, 48 h

Point of comparison: `O=C1N(C2CCCCC2)C(=O)N1C1CCCCC1`, TGI 31.5 µM. Against it:
- CO[C@]1(c2ccc([N+](=O)[O-])cc2)Oc2ccccc2C(=O)[C@@]1(Nc1ccc(C=O)cc1)OC — not separable, > 10 µM
- C[N+](C)(CCCn1ccnc1[N+](=O)[O-])CCCn1ccnc1[N+](=O)[O-] — higher, > 100 µM
- C=Cc1nc2c(Cl)ncnc2n1Cc1ccccc1 — 1.6-fold lower, 20.1 µM

System: K-562 leukemia
Assay: DTP human tumour cell line panel, 48 h

Point of comparison: `O=C1N(C2CCCCC2)C(=O)N1C1CCCCC1`, TGI 13.4 µM. Against it:
- CO[C@]1(c2ccc([N+](=O)[O-])cc2)Oc2ccccc2C(=O)[C@@]1(Nc1ccc(C=O)cc1)OC — not separable, > 10 µM
- C[N+](C)(CCCn1ccnc1[N+](=O)[O-])CCCn1ccnc1[N+](=O)[O-] — higher, > 100 µM
- C=Cc1nc2c(Cl)ncnc2n1Cc1ccccc1 — higher, > 40.1 µM

System: SF-295 CNS
Assay: DTP human tumour cell line panel, 48 h

Point of comparison: `C=Cc1nc2c(Cl)ncnc2n1Cc1ccccc1`, TGI 32.2 µM. Against it:
- CO[C@]1(c2ccc([N+](=O)[O-])cc2)Oc2ccccc2C(=O)[C@@]1(Nc1ccc(C=O)cc1)OC — not separable, > 10 µM
- O=C1N(C2CCCCC2)C(=O)N1C1CCCCC1 — 2.3-fold lower, 14.3 µM
- C[N+](C)(CCCn1ccnc1[N+](=O)[O-])CCCn1ccnc1[N+](=O)[O-] — higher, > 100 µM

System: RPMI-8226 leukemia
Assay: DTP human tumour cell line panel, 48 h

Point of comparison: `O=C1N(C2CCCCC2)C(=O)N1C1CCCCC1`, TGI 0.935 µM. Against it:
- CO[C@]1(c2ccc([N+](=O)[O-])cc2)Oc2ccccc2C(=O)[C@@]1(Nc1ccc(C=O)cc1)OC — higher, > 10 µM
- C[N+](C)(CCCn1ccnc1[N+](=O)[O-])CCCn1ccnc1[N+](=O)[O-] — higher, > 100 µM
- C=Cc1nc2c(Cl)ncnc2n1Cc1ccccc1 — 20-fold higher, 18.3 µM

System: LOX IMVI melanoma
Assay: DTP human tumour cell line panel, 48 h

Point of comparison: `O=C1N(C2CCCCC2)C(=O)N1C1CCCCC1`, TGI 11.1 µM. Against it:
- CO[C@]1(c2ccc([N+](=O)[O-])cc2)Oc2ccccc2C(=O)[C@@]1(Nc1ccc(C=O)cc1)OC — not separable, > 10 µM
- C[N+](C)(CCCn1ccnc1[N+](=O)[O-])CCCn1ccnc1[N+](=O)[O-] — higher, > 100 µM
- C=Cc1nc2c(Cl)ncnc2n1Cc1ccccc1 — within 1.5-fold, 8.44 µM

System: MALME-3M melanoma
Assay: DTP human tumour cell line panel, 48 h

Point of comparison: `C=Cc1nc2c(Cl)ncnc2n1Cc1ccccc1`, TGI 15.1 µM. Against it:
- CO[C@]1(c2ccc([N+](=O)[O-])cc2)Oc2ccccc2C(=O)[C@@]1(Nc1ccc(C=O)cc1)OC — not separable, > 10 µM
- O=C1N(C2CCCCC2)C(=O)N1C1CCCCC1 — within 1.5-fold, 11.7 µM
- C[N+](C)(CCCn1ccnc1[N+](=O)[O-])CCCn1ccnc1[N+](=O)[O-] — higher, > 100 µM

System: NCI-H460 lung
Assay: DTP human tumour cell line panel, 48 h

Point of comparison: `O=C1N(C2CCCCC2)C(=O)N1C1CCCCC1`, TGI 30.3 µM. Against it:
- CO[C@]1(c2ccc([N+](=O)[O-])cc2)Oc2ccccc2C(=O)[C@@]1(Nc1ccc(C=O)cc1)OC — not separable, > 10 µM
- C[N+](C)(CCCn1ccnc1[N+](=O)[O-])CCCn1ccnc1[N+](=O)[O-] — higher, > 100 µM
- C=Cc1nc2c(Cl)ncnc2n1Cc1ccccc1 — within 1.5-fold, 23.6 µM

System: COLO 205 colon
Assay: DTP human tumour cell line panel, 48 h

Point of comparison: `C=Cc1nc2c(Cl)ncnc2n1Cc1ccccc1`, TGI 3.08 µM. Against it:
- CO[C@]1(c2ccc([N+](=O)[O-])cc2)Oc2ccccc2C(=O)[C@@]1(Nc1ccc(C=O)cc1)OC — higher, > 10 µM
- O=C1N(C2CCCCC2)C(=O)N1C1CCCCC1 — 5.3-fold higher, 16.2 µM
- C[N+](C)(CCCn1ccnc1[N+](=O)[O-])CCCn1ccnc1[N+](=O)[O-] — higher, > 100 µM

System: MDA-N
Assay: DTP human tumour cell line panel, 48 h

Point of comparison: `C=Cc1nc2c(Cl)ncnc2n1Cc1ccccc1`, TGI 13.6 µM. Against it:
- CO[C@]1(c2ccc([N+](=O)[O-])cc2)Oc2ccccc2C(=O)[C@@]1(Nc1ccc(C=O)cc1)OC — not separable, > 10 µM
- O=C1N(C2CCCCC2)C(=O)N1C1CCCCC1 — within 1.5-fold, 17 µM
- C[N+](C)(CCCn1ccnc1[N+](=O)[O-])CCCn1ccnc1[N+](=O)[O-] — higher, > 100 µM

System: M14 melanoma
Assay: DTP human tumour cell line panel, 48 h

Point of comparison: `O=C1N(C2CCCCC2)C(=O)N1C1CCCCC1`, TGI 20.7 µM. Against it:
- CO[C@]1(c2ccc([N+](=O)[O-])cc2)Oc2ccccc2C(=O)[C@@]1(Nc1ccc(C=O)cc1)OC — not separable, > 10 µM
- C[N+](C)(CCCn1ccnc1[N+](=O)[O-])CCCn1ccnc1[N+](=O)[O-] — higher, > 100 µM
- C=Cc1nc2c(Cl)ncnc2n1Cc1ccccc1 — within 1.5-fold, 15.7 µM

System: SK-OV-3 ovarian
Assay: DTP human tumour cell line panel, 48 h

Point of comparison: `C=Cc1nc2c(Cl)ncnc2n1Cc1ccccc1`, TGI 31 µM. Against it:
- CO[C@]1(c2ccc([N+](=O)[O-])cc2)Oc2ccccc2C(=O)[C@@]1(Nc1ccc(C=O)cc1)OC — not separable, > 10 µM
- O=C1N(C2CCCCC2)C(=O)N1C1CCCCC1 — 1.9-fold higher, 59.9 µM
- C[N+](C)(CCCn1ccnc1[N+](=O)[O-])CCCn1ccnc1[N+](=O)[O-] — higher, > 100 µM

System: SN12C renal
Assay: DTP human tumour cell line panel, 48 h

Point of comparison: `C=Cc1nc2c(Cl)ncnc2n1Cc1ccccc1`, TGI 17.5 µM. Against it:
- CO[C@]1(c2ccc([N+](=O)[O-])cc2)Oc2ccccc2C(=O)[C@@]1(Nc1ccc(C=O)cc1)OC — not separable, > 10 µM
- O=C1N(C2CCCCC2)C(=O)N1C1CCCCC1 — within 1.5-fold, 16.1 µM
- C[N+](C)(CCCn1ccnc1[N+](=O)[O-])CCCn1ccnc1[N+](=O)[O-] — higher, > 100 µM

System: MOLT-4 leukemia
Assay: DTP human tumour cell line panel, 48 h

Point of comparison: `O=C1N(C2CCCCC2)C(=O)N1C1CCCCC1`, TGI 10.2 µM. Against it:
- CO[C@]1(c2ccc([N+](=O)[O-])cc2)Oc2ccccc2C(=O)[C@@]1(Nc1ccc(C=O)cc1)OC — not separable, > 10 µM
- C[N+](C)(CCCn1ccnc1[N+](=O)[O-])CCCn1ccnc1[N+](=O)[O-] — higher, > 100 µM
- C=Cc1nc2c(Cl)ncnc2n1Cc1ccccc1 — higher, > 28.4 µM

System: HCT-15 colon
Assay: DTP human tumour cell line panel, 48 h

Point of comparison: `C=Cc1nc2c(Cl)ncnc2n1Cc1ccccc1`, TGI 8.05 µM. Against it:
- CO[C@]1(c2ccc([N+](=O)[O-])cc2)Oc2ccccc2C(=O)[C@@]1(Nc1ccc(C=O)cc1)OC — higher, > 10 µM
- O=C1N(C2CCCCC2)C(=O)N1C1CCCCC1 — 2.8-fold higher, 22.2 µM
- C[N+](C)(CCCn1ccnc1[N+](=O)[O-])CCCn1ccnc1[N+](=O)[O-] — higher, > 100 µM

System: OVCAR-8 ovarian
Assay: DTP human tumour cell line panel, 48 h

Point of comparison: `O=C1N(C2CCCCC2)C(=O)N1C1CCCCC1`, TGI 16.6 µM. Against it:
- CO[C@]1(c2ccc([N+](=O)[O-])cc2)Oc2ccccc2C(=O)[C@@]1(Nc1ccc(C=O)cc1)OC — not separable, > 10 µM
- C[N+](C)(CCCn1ccnc1[N+](=O)[O-])CCCn1ccnc1[N+](=O)[O-] — higher, > 100 µM
- C=Cc1nc2c(Cl)ncnc2n1Cc1ccccc1 — within 1.5-fold, 12 µM

System: TK-10 renal
Assay: DTP human tumour cell line panel, 48 h

Point of comparison: `O=C1N(C2CCCCC2)C(=O)N1C1CCCCC1`, TGI 38.5 µM. Against it:
- CO[C@]1(c2ccc([N+](=O)[O-])cc2)Oc2ccccc2C(=O)[C@@]1(Nc1ccc(C=O)cc1)OC — not separable, > 10 µM
- C[N+](C)(CCCn1ccnc1[N+](=O)[O-])CCCn1ccnc1[N+](=O)[O-] — higher, > 100 µM
- C=Cc1nc2c(Cl)ncnc2n1Cc1ccccc1 — 5-fold lower, 7.72 µM

System: EKVX NSCLC
Assay: DTP human tumour cell line panel, 48 h

Point of comparison: `C=Cc1nc2c(Cl)ncnc2n1Cc1ccccc1`, TGI 10.3 µM. Against it:
- CO[C@]1(c2ccc([N+](=O)[O-])cc2)Oc2ccccc2C(=O)[C@@]1(Nc1ccc(C=O)cc1)OC — not separable, > 10 µM
- O=C1N(C2CCCCC2)C(=O)N1C1CCCCC1 — higher, > 100 µM
- C[N+](C)(CCCn1ccnc1[N+](=O)[O-])CCCn1ccnc1[N+](=O)[O-] — higher, > 100 µM

System: NCI-H226 lung
Assay: DTP human tumour cell line panel, 48 h

Point of comparison: `C=Cc1nc2c(Cl)ncnc2n1Cc1ccccc1`, TGI 17 µM. Against it:
- CO[C@]1(c2ccc([N+](=O)[O-])cc2)Oc2ccccc2C(=O)[C@@]1(Nc1ccc(C=O)cc1)OC — not separable, > 10 µM
- O=C1N(C2CCCCC2)C(=O)N1C1CCCCC1 — 1.5-fold lower, 11.3 µM
- C[N+](C)(CCCn1ccnc1[N+](=O)[O-])CCCn1ccnc1[N+](=O)[O-] — higher, > 100 µM

System: DU-145 prostate
Assay: DTP human tumour cell line panel, 48 h

Point of comparison: `C=Cc1nc2c(Cl)ncnc2n1Cc1ccccc1`, TGI 7.2 µM. Against it:
- CO[C@]1(c2ccc([N+](=O)[O-])cc2)Oc2ccccc2C(=O)[C@@]1(Nc1ccc(C=O)cc1)OC — higher, > 10 µM
- O=C1N(C2CCCCC2)C(=O)N1C1CCCCC1 — higher, > 58.9 µM
- C[N+](C)(CCCn1ccnc1[N+](=O)[O-])CCCn1ccnc1[N+](=O)[O-] — higher, > 100 µM
